Read-outs that look alike come from different tables or passages of the source.
Legend:
Type in all cases: biochemical
[1] = molecular target: JNK1 (Homo sapiens, UniProt P45983); assay: ExpresS Diversity Kinase Profile, Cerep (LANCE): JNK1
[2] = molecular target: T1, JAK3 (Homo sapiens, UniProt P52333); assay: ExpresS Diversity Kinase Profile, Cerep (LANCE): JAK3
T1 sequence (P52333 1-1124): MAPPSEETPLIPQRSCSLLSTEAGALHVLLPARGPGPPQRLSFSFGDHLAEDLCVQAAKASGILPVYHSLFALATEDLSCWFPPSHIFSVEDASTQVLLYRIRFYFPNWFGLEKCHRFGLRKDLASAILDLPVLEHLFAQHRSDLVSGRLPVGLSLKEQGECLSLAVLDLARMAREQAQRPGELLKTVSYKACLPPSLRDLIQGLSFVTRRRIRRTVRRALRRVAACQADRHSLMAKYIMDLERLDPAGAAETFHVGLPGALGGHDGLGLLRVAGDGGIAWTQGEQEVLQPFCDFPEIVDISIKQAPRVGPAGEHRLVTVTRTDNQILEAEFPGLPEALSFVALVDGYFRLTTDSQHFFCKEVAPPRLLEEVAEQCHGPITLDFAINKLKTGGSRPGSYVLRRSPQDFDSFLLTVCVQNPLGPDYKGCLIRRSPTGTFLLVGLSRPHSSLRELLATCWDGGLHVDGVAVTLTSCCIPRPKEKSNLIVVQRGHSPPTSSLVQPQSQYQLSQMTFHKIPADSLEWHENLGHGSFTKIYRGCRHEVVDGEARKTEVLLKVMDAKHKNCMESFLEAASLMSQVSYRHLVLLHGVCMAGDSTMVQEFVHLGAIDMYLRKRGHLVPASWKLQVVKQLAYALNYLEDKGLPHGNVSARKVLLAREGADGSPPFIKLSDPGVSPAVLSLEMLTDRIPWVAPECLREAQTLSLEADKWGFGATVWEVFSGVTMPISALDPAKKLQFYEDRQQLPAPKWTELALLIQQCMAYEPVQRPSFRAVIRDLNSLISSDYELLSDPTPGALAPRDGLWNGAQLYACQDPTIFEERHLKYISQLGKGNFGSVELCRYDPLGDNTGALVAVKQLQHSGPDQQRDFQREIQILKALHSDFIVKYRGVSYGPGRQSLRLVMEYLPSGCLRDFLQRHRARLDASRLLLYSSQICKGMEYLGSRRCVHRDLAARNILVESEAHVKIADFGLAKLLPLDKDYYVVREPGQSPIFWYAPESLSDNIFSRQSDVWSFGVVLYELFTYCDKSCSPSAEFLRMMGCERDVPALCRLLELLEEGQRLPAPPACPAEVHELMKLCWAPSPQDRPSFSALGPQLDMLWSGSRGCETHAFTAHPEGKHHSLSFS

[3] = molecular target: T2, SGK1 (Homo sapiens, UniProt O00141); assay: ExpresS Diversity Kinase Profile, Cerep (LANCE): SGK1
T2 sequence (O00141 1-431): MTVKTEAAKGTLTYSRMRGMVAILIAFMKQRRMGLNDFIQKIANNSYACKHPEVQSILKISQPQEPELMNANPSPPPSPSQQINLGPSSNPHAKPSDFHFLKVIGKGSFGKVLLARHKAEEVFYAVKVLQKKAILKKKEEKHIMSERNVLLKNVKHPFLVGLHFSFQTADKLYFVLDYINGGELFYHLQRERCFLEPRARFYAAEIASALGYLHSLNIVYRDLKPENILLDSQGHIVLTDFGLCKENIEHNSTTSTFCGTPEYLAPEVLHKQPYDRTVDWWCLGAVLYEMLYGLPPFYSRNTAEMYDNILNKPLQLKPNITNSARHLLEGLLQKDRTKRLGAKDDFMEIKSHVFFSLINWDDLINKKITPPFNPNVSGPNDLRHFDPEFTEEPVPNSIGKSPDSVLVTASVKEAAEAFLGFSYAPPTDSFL

[4] = molecular target: IRK (Homo sapiens, UniProt P06213); assay: ExpresS Diversity Kinase Profile, Cerep (LANCE): IRK
Chain of IRK (P06213 28-1382): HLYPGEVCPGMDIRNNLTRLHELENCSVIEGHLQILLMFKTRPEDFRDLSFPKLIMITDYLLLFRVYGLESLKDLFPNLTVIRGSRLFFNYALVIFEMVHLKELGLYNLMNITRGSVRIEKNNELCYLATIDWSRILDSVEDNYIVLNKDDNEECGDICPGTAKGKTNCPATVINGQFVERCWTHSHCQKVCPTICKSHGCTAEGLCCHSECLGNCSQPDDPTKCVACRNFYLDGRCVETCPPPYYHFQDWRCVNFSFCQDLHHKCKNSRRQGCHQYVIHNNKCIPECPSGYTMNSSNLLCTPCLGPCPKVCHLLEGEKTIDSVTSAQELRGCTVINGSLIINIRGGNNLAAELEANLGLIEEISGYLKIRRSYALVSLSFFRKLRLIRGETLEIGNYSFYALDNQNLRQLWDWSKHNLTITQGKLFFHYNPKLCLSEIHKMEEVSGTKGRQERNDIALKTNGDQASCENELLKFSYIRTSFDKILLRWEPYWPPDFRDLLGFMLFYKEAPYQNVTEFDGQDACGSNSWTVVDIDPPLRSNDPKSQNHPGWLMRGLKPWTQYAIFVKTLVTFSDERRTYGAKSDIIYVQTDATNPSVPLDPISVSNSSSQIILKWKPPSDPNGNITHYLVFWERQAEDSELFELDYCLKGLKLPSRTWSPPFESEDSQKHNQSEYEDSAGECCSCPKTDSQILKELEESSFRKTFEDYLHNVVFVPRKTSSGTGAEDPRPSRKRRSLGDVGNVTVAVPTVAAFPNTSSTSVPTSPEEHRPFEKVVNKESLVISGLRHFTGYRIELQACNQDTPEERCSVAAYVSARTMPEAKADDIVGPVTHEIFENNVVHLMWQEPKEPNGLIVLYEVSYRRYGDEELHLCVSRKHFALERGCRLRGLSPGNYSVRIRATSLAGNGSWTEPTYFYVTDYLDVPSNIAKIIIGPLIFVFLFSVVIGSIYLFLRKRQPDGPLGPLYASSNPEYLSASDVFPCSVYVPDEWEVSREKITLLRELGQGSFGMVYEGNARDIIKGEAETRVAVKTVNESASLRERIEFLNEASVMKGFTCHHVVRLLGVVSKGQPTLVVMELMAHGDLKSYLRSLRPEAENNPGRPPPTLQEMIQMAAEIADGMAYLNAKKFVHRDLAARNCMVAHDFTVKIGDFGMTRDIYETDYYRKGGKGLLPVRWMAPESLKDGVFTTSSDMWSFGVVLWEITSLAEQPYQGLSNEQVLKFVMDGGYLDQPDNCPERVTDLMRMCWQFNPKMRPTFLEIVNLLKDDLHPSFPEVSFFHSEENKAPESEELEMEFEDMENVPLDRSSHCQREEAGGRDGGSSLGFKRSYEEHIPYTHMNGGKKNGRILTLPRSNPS

[5] = molecular target: PAK2 (Homo sapiens, UniProt Q13177); assay: ExpresS Diversity Kinase Profile, Cerep (LANCE): PAK2
Chain of PAK2 (Q13177 whole entry): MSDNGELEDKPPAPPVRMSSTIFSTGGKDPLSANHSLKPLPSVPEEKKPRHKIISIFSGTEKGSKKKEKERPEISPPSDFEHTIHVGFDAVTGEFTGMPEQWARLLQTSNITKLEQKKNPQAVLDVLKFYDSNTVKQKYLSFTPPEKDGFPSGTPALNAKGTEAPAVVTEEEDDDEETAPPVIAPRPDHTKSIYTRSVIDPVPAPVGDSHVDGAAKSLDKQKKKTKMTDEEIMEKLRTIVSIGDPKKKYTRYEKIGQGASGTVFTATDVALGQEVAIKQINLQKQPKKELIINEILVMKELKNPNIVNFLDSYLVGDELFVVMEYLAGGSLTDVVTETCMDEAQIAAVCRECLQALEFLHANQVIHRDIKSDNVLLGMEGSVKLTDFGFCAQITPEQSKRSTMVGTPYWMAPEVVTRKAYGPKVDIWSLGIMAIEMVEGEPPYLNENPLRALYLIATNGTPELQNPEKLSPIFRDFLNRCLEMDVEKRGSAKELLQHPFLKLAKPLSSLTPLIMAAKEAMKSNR

[6] = molecular target: T3, NEK2 (Homo sapiens, UniProt P51955); assay: ExpresS Diversity Kinase Profile, Cerep (LANCE): NEK2
T3 sequence (P51955 1-445): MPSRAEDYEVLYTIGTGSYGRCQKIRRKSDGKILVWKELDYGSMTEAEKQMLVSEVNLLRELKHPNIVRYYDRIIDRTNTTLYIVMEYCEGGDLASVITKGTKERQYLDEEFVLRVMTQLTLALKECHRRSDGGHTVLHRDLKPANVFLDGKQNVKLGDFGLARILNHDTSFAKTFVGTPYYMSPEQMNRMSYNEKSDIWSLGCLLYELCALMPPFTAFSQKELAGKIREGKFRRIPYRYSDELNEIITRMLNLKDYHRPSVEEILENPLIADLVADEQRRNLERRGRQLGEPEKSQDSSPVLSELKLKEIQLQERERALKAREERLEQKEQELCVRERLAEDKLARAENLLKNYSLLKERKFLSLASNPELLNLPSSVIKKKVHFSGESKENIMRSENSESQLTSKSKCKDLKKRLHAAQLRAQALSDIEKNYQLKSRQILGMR

[7] = molecular target: T4, IRAK4 (Homo sapiens, UniProt Q9NWZ3); assay: ExpresS Diversity Kinase Profile, Cerep (LANCE): IRAK4
T4 sequence (Q9NWZ3 1-460): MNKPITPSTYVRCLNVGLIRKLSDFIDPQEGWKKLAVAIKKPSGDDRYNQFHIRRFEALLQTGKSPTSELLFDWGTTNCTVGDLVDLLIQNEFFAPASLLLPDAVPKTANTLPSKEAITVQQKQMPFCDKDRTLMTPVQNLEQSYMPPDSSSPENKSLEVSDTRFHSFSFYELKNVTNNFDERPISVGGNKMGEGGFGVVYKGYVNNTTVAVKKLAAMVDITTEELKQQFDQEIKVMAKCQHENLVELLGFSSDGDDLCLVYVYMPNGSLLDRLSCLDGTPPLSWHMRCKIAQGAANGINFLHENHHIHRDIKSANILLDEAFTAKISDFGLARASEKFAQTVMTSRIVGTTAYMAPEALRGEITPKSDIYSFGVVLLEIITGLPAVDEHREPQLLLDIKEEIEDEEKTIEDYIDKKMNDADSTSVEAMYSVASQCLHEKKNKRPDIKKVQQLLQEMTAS

[8] = molecular target: CDK1 (Homo sapiens, UniProt P06493); assay: ExpresS Diversity Kinase Profile, Cerep (LANCE): CDK1
Chain of CDK1 (P06493 whole entry): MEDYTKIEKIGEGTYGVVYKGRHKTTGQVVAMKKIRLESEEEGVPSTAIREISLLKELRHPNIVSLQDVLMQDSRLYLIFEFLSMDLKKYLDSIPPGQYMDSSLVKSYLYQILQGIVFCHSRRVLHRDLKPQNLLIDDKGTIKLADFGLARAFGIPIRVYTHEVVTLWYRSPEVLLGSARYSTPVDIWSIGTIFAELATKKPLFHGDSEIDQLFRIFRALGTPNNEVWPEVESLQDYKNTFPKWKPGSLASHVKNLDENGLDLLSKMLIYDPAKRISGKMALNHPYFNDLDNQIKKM
Chain of CDK1 (P14635 whole entry partner): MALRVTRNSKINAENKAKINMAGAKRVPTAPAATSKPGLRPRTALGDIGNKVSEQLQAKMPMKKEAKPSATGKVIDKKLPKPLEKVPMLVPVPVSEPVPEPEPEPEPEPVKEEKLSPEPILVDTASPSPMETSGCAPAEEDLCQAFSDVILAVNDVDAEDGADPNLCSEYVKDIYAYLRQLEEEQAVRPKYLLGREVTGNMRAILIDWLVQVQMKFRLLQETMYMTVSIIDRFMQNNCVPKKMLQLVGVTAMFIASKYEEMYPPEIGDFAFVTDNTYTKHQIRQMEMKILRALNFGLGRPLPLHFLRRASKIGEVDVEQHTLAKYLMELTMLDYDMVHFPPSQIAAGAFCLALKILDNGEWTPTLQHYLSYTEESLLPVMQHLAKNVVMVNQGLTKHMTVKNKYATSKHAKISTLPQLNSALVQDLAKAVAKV

[9] = molecular target: PKA (Homo sapiens, UniProt P17612); assay: ExpresS Diversity Kinase Profile, Cerep (LANCE): PKA
[10] = Flag: Interference, read-out: % Inhibition of control values, 1st measurement
[11] = Flag: Interference, read-out: % Inhibition of control values, 2nd measurement
[12] = n = 2, Flag: Interference, read-out: % Inhibition of control values, Mean
[13] = n = 2, read-out: % Inhibition of control values, Mean
[14] = read-out: % Inhibition of control values, 1st measurement
[15] = read-out: % Inhibition of control values, 2nd measurement

Chain of JNK1 (P45983 whole entry): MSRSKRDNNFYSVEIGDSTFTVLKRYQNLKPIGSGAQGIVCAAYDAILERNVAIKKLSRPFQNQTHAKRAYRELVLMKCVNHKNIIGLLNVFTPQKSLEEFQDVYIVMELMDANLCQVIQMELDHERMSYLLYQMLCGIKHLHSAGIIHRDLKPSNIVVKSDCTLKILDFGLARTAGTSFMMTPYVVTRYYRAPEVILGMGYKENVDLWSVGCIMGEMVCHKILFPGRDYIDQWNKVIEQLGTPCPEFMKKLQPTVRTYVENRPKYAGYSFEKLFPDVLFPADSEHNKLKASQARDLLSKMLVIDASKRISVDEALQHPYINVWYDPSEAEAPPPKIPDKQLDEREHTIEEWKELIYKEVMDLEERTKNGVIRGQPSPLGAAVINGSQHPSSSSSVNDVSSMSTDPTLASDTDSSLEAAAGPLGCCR

Structure (SMILES): CN[C@@H]1C[C@H]2O[C@@](C)([C@@H]1OC)n1c3ccccc3c3c4c(c5c6ccccc6n2c5c31)C(=O)NC4 [Staurosporine, reference compound]
- nHill ([1]; control): 1.8
- nHill ([2]; control): 2.2
- nHill ([3]; control): > 3
- nHill ([4]; control): 1.0
- nHill ([5]; control): > 3
- nHill ([6]; control): 0.9
- nHill ([7]; control): 0.7
- nHill ([8]; control): 1.1
- nHill ([9]; control): > 3

Structure (SMILES): CC1(C)CCC2=C(O1)c1ccccc1C(=O)C2=O [β-Lapachone]
- inhibition at 150 µM [1, 10]: 59.8%
- inhibition at 150 µM [1, 11]: 55.6%
- inhibition at 150 µM [1, 12]: 57.7%
- inhibition at 150 µM [2, 13]: 69%
- inhibition at 150 µM [2, 14]: 83.6%
- inhibition at 150 µM [2, 15]: 54.5%
- inhibition at 150 µM [3, 13]: 54.5%
- inhibition at 150 µM [3, 14]: 54.4%
- inhibition at 150 µM [3, 15]: 54.5%
- inhibition at 150 µM [4, 13]: 50.8%
- inhibition at 150 µM [4, 14]: 50.9%
- inhibition at 150 µM [4, 15]: 50.6%
- inhibition at 150 µM [5, 10]: -34%
- inhibition at 150 µM [5, 11]: 1.5%
- inhibition at 150 µM [5, 12]: -16.2%
- inhibition at 150 µM [6, 10]: 19%
- inhibition at 150 µM [6, 11]: 18.4%
- inhibition at 150 µM [6, 12]: 18.7%
- inhibition at 150 µM [7, 13]: 2.2%
- inhibition at 150 µM [7, 14]: -1.2%
- inhibition at 150 µM [7, 15]: 5.6%
- inhibition at 150 µM [8, 10]: 66%
- inhibition at 150 µM [8, 11]: 68%
- inhibition at 150 µM [8, 12]: 67%
- inhibition at 150 µM [9, 10]: -10.5%
- inhibition at 150 µM [9, 11]: -5.4%
- inhibition at 150 µM [9, 12]: -8%

— publication PMC6138237, “Machine intelligence decrypts β-lapachone as an allosteric 5-lipoxygenase inhibitor” (Chemical Science, 2018)
